Assays:
Assay in all cases: relative viability (nuclei count vs DMSO), 5 days (fraction); higher = more cells survive
Bortezomib + Trametinib = compound: CC(C)C[C@H](NC(=O)[C@H](Cc1ccccc1)NC(=O)c1cnccn1)B(O)O [Bortezomib] + CC(=O)Nc1cccc(-n2c(=O)n(C3CC3)c(=O)c3c(Nc4ccc(I)cc4F)n(C)c(=O)c(C)c32)c1 [Trametinib] (partner 0.02 µM)
Method in brief: (§1)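 One day after seeding in 1536-well plates, lung cancer cell lines were dosed by pin tool. Dosing was either single-drug or a fixed anchor-drug dose plus five library-drug doses (not always all listed) in √10 steps. After 5 days, nuclei were stained in one fix-and-stain step and counted on 4× images, and relative viability is the nuclei count of treated wells over that of vehicle wells, given as the median of duplicate plates.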

[1] = compound: CC1=CC(=NN1)NC2=CC(=NC(=N2)/C=C/C3=CC=CC=C3)N4CCN(CC4)C + Cc1nc(NC(=O)N2CCC[C@H]2C(N)=O)sc1-c1ccnc(C(C)(C)C(F)(F)F)c1 [Alpelisib] (partner 2 µM)
Method in brief: as §1

Obatoclax + Navitoclax = compound: COC1=CC(c2cc3ccccc3[nH]2)=N/C1=C\c1[nH]c(C)cc1C [Obatoclax] + CC1(C)CCC(c2ccc(Cl)cc2)=C(CN2CCN(c3ccc(C(=O)NS(=O)(=O)c4ccc(N[C@H](CCN5CCOCC5)CSc5ccccc5)c(S(=O)(=O)C(F)(F)F)c4)cc3)CC2)C1 [Navitoclax] (partner 0.5 µM)
Method in brief: as §1

[2] = compound: CC1=CC(=NN1)NC2=CC(=NC(=N2)/C=C/C3=CC=CC=C3)N4CCN(CC4)C + CC1(C)CCC(c2ccc(Cl)cc2)=C(CN2CCN(c3ccc(C(=O)NS(=O)(=O)c4ccc(N[C@H](CCN5CCOCC5)CSc5ccccc5)c(S(=O)(=O)C(F)(F)F)c4)cc3)CC2)C1 [Navitoclax] (partner 0.5 µM)
Method in brief: as §1

Cell Line | relative viability (Bortezomib + Trametinib; first compound 0.0002 µM) | relative viability (Bortezomib + Trametinib; first compound 0.000632 µM) | relative viability (Bortezomib + Trametinib; first compound 0.002 µM) | relative viability (Bortezomib + Trametinib; first compound 0.006325 µM) | relative viability (Bortezomib + Trametinib; first compound 0.02 µM) | relative viability ([1]; first compound 0.08 µM) | relative viability ([1]; first compound 0.253 µM) | relative viability ([1]; first compound 0.8 µM) | relative viability ([1]; first compound 2.53 µM) | relative viability ([1]; first compound 8 µM) | relative viability (Obatoclax + Navitoclax; first compound 0.01 µM) | relative viability (Obatoclax + Navitoclax; first compound 0.03162 µM) | relative viability (Obatoclax + Navitoclax; first compound 0.1 µM) | relative viability (Obatoclax + Navitoclax; first compound 0.3162 µM) | relative viability (Obatoclax + Navitoclax; first compound 1 µM) | relative viability ([2]; first compound 0.08 µM) | relative viability ([2]; first compound 0.253 µM) | relative viability ([2]; first compound 0.8 µM) | relative viability ([2]; first compound 2.53 µM) | relative viability ([2]; first compound 8 µM)
NCI-H2085 | 0.622 | 0.501 | 0.54 | 0.228 | 0.155 | 0.874 | 0.952 | 1.07 | 0.741 | 0.301 | 1.14 | 1.11 | 1.13 | 0.704 | 0.728 | 1.24 | 1.19 | 0.994 | 0.489 | 0.315
NCI-H2087 | 0.201 | 0.187 | 0.149 | 0.0967 | 0.0704 | 1.11 | 1.04 | 1.07 | 0.965 | 0.135 | 0.9 | 0.857 | 0.866 | 0.438 | 0.196 | 0.974 | 0.923 | 1.11 | 0.247 | 0.122
HCC-366 | 0.333 | 0.371 | 0.433 | 0.181 | 0.0229 | 0.376 | 0.646 | 0.363 | 0.0741 | 0.0115 | 0.969 | 1.03 | 1.05 | 0.988 | 1.01 | 1.07 | 1.19 | 0.989 | 0.371 | 0.0097
NCI-H2126 | 0.548 | 0.599 | 0.54 | 0.496 | 0.202 | 0.776 | 0.802 | 0.76 | 0.674 | 0.377 | 0.837 | 0.839 | 0.875 | 0.887 | 0.908 | 0.839 | 0.871 | 0.806 | 0.772 | 0.478
SK-LU-1 | 0.505 | 0.436 | 0.43 | 0.202 | 0.173 | 1.05 | 0.972 | 0.636 | 0.223 | 0.113 | 0.753 | 0.871 | 0.424 | 0.222 | 0.216 | 0.792 | 0.905 | 0.786 | 0.385 | 0.0813
HCC-78 | 0.799 | 0.699 | 0.312 | 0.196 | 0.233 | 0.315 | 0.371 | 0.295 | 0.275 | 0.117 | 0.81 | 0.807 |  | 0.575 | 0.668 | 0.799 | 0.918 | 0.823 | 0.568 | 0.126
LCLC-97TM1 | 0.173 | 0.205 | 0.162 | 0.0973 | 0.063 | 0.225 | 0.288 | 0.191 | 0.146 | 0.111 | 0.38 | 0.439 | 0.387 | 0.346 | 0.474 | 0.492 | 0.781 | 0.294 | 0.201 | 0.106
NCI-H838 | 0.479 | 0.677 | 0.549 | 0.106 | 0.0935 | 1.02 | 1.13 | 0.884 | 0.749 | 0.139 | 1.14 | 1.26 | 1.03 | 0.776 | 0.573 | 1.22 | 1.22 | 0.866 | 0.305 | 0.134
NCI-H520 | 0.667 | 0.741 | 0.451 | 0.141 | 0.128 | 0.891 | 0.937 | 0.892 | 0.498 | 0.166 | 1.1 | 1.16 | 1.07 | 0.795 | 0.288 | 0.985 | 1.12 | 0.889 | 0.198 | 0.127
NCI-H2347 | 0.263 | 0.283 | 0.193 | 0.243 | 0.232 | 1.06 | 1.15 | 1.07 | 0.915 | 0.517 | 0.724 | 0.781 | 0.698 | 0.602 | 0.877 | 0.762 | 0.871 | 0.912 | 0.496 | 0.361
NCI-H441 | 0.428 | 0.482 | 0.153 | 0.131 | 0.127 | 0.632 | 0.578 | 0.484 | 0.157 | 0.121 | 0.775 | 0.535 | 0.832 | 0.546 | 0.259 | 0.704 | 0.503 | 0.302 | 0.187 | 0.122
NCI-H2405 | 0.579 | 0.646 | 0.523 | 0.223 | 0.188 | 0.687 | 0.6 | 0.983 | 0.414 | 0.148 | 0.82 | 1.06 |  | 0.862 | 0.857 | 0.884 | 0.688 | 1.13 | 0.511 | 0.0864
HCC-15 | 0.39 | 0.394 | 0.426 | 0.117 | 0.104 | 0.856 | 1.03 | 0.828 | 0.494 | 0.0833 | 0.726 | 0.726 | 0.645 | 0.569 | 0.469 | 0.67 | 0.731 | 0.612 | 0.409 | 0.118
